Experimental data published in patent publication US20130317069A1, “2,4-(SUBSTITUTED AROMATIC)-1,3-OXAZOLINE COMPOUNDS AS A SEED TREATMENT TO CONTROL PESTS” (Dow Agrosciences LLC, priority 2012, published 2013).

Tests used:
[1] = system: Spodoptera exigua (beet armyworm); assay: Insecticidal activity on beet armyworm, treated lepidopteran diet; format: in vivo; settings: 120 h, Rate 400 PPM, 250 μL test solution on diet surface, second-instar larvae, 5 days at 25° C., five insects per treatment
Procedure: (§1) Different 2,4-(substituted aromatic)-1,3-oxazoline compounds were tested for insecticidal activity on Spodoptera exigua (beet armyworm) and Myzus persicae (green peach aphid).
The different 2,4-(substituted aromatic)-1,3-oxazoline compounds used on Spodoptera exigua were formulated as test solutions. To prepare the test solutions, the different 2,4-(substituted aromatic)-1,3-oxazoline compounds were formulated at 400 PPM in 7.5 mL of 2:1 acetone:tap water solvent. 250 μL of each test solution was pipetted upon the surface of 8 mL of lepidopteran diet (modified Shorey) contained in each of five one-ounce plastic cups (one cup=1 replication). A second-instar beet armyworm was placed upon the treated diet in each cup once the solvent had air-dried. The cups containing the treated lepidopteran diet and the beet armyworms were capped and then held in a growth chamber at 25° C., 50-55% RH, and 14 hours light:10 hours dark for 5 days. The average % mortality was determined from the number of dead insects of five per treatments.

[2] = system: Myzus persicae (green peach aphid); assay: Insecticidal activity on green peach aphid, spray on infested cabbage leaves; format: in vivo; settings: 72 h, Rate 50 PPM spray on infested cabbage leaves until runoff, graded after 3 days at 26° C., count compared with untreated check
Procedure: as §1
The different 2,4-(substituted aromatic)-1,3-oxazoline compounds used on Myzus persicae were formulated as test spray solutions. To prepare the test spray solutions, 1 mg of each of the different 2,4-(substituted aromatic)-1,3-oxazoline compounds was dissolved into 1 mL of a 90:10 acetone:ethanol solvent. The resulting solution was added to 19 mL of water containing 0.05% Tween surfactant to produce different 50 PPM spray solutions. Cabbage leaves were […] with green peach aphid (all life stages) 16-20 hours prior to application of the different spray solutions. The different spray solutions were sprayed on both sides of each infested cabbage leaf with a sweeping action until runoff. The cabbage leaves were allowed to dry and were held for 3 days in a controlled room at 26° C. and 40% RH, after which time the test was graded. Grading was by actual count using a dissecting microscope and comparison of test counts to an untreated check. The average % mortality was then determined. In Table 1, “NT” means insecticidal activity was not tested for the 2,4-(substituted aromatic)-1,3-oxazoline compound at this rate.

Row | SMILES | mortality at 400 ppm [1] [%] | mortality at 50 ppm [2] [%]
1 | Cc1ccccc1C1=N[C@@H](c2ccc(-c3ccc(C(F)(F)F)cc3)cc2)[C@@H](C)O1 (stereo in doubt) [(X)] | 100 | 88
2 | Cc1cc(-c2ccc(C(F)(F)F)cc2)ccc1C1COC(c2c(Cl)cncc2Cl)=N1 (centres unmarked) [(VI)] | 100 | 20
3 | Fc1cncc(F)c1C1=NC(c2ccc(-c3ccc(C(F)(F)F)cc3)cc2)CO1 (centres unmarked) [(II)] | 80 | –
4 | Cc1ccccc1C1=N[C@@H](c2ccc(-c3ccc(OC(F)(F)F)cc3)cc2)[C@@H](C)O1 (stereo in doubt) [(XI)] | 100 | 71
5 | C[C@H]1OC(c2c(F)cccc2F)=N[C@H]1c1ccc(-c2ccc(OC(F)(F)F)cc2)cc1 (stereo in doubt) [(XVI)] | 100 | 95
6 | FC(F)(F)c1ccc(-c2ccc(C3COC(c4c(Cl)cncc4Cl)=N3)cc2)c(Cl)c1 (centres unmarked) [(I)] | 100 | 18
7 | Clc1cncc(Cl)c1C1=NC(c2ccc(-c3ccccc3)cc2)CO1 (centres unmarked) [(IV)] | 80 | –
8 | Cc1cc(-c2ccc(OC(F)(F)F)cc2)ccc1C1COC(c2c(F)cccc2Cl)=N1 (centres unmarked) [(VIII)] | 100 | 66
9 | C[C@@H]1OC(c2c(F)cccc2Cl)=N[C@@H]1c1ccc(-c2ccc(OC(F)(F)F)cc2)cc1 (stereo in doubt) [(XII)] | 100 | 86
10 | FC(F)(F)c1ccc(-c2ccc(C3COC(c4c(Cl)cncc4Cl)=N3)cc2)cc1 (centres unmarked) [(XV)] | 100 | 75
11 | CCOc1ccc(-c2ccc(C3N=C(c4c(F)cccc4F)OC3(C)C)cc2)cc1 (centres unmarked) [(XIV)] | 60 | 40
12 | Cc1ccc(-c2ccc([C@@H]3N=C(c4c(F)cccc4F)O[C@H]3C)cc2)cc1C (stereo in doubt) [(IX)] | 60 | 0
13 | C[C@@H]1OC(c2c(F)cccc2F)=N[C@@H]1c1ccc(-c2ccc(C(F)(F)F)cc2)cc1 (stereo in doubt) [(III)] | 100 | 32
14 | Fc1ccc(C(F)(F)F)cc1-c1ccc(C2COC(c3c(Cl)cncc3Cl)=N2)cc1 (centres unmarked) [(V)] | 60 | –
15 | CCOc1ccc(-c2ccc(C3COC(c4c(Cl)cncc4Cl)=N3)c(C)c2)cc1 (centres unmarked) [(VII)] | 100 | 82
16 | CCOc1ccc(-c2ccc([C@H]3N=C(c4c(F)cccc4Cl)O[C@H]3C)cc2)cc1 (stereo in doubt) [(XIII)] | 100 | 82
